In paper PMC9352670 (2022):

Tests used:
Experiment in all cases: microscale thermophoresis
Details in all cases: 5 mM KCl, 1 mM MgCl2, 1 mM CaCl2 added; HBS-P+ buffer, 25 °C
[1] = tested on: Dm-LS-2 (DNA, aptamer, HFNAP: side-chain on 5' nucleobase of each coding trinucleotide, positions 19,22,25,...,61 (codon key Figure 1B)) GAAAGCAGGACTGGAGATCCGCGCCGCTTTTATCCCTGTCCCCGCTACCCGTATCCCTCCTTGCAGACCGAACTAGAGCTT
[2] = tested on: Dm-LS-4 (DNA, aptamer, HFNAP: side-chain on 5' nucleobase of each coding trinucleotide, positions 19,22,25,...,61 (codon key Figure 1B)) GAAAGCAGGACTGGAGATCCGCGCCGCTTTTATCCCTAGTCCCTCTTACCCTACTTCCCCTTACAGACCGAACTAGAGCTT
[3] = tested on: Dm-HS-7 (DNA, aptamer, HFNAP: side-chain on 5' nucleobase of each coding trinucleotide, positions 19,22,25,...,61 (codon key Figure 1B)) GAAAGCAGGACTGGAGATCGATTGCAGTTACGTTGCTAGTCCCCTTGATCACCTCCGTCACCTCAGACCGAACTAGAGCTT
[4] = tested on: Dm-HS-9 (DNA, aptamer, HFNAP: side-chain on 5' nucleobase of each coding trinucleotide, positions 19,22,25,...,61 (codon key Figure 1B)) GAAAGCAGGACTGGAGATCGATTATTGTGATTTTGATCTCCCCCATATCCCCTTCCCTACTCGCAGACCGAACTAGAGCTT
[5] = tested on: Dm-CVAE-without-selection-2 (DNA, aptamer, HFNAP: side-chain on 5' nucleobase of each coding trinucleotide, positions 19,22,25,...,61 (codon key Figure 1B)) GAAAGCAGGACTGGAGATTCGTTACCGCTGTTGCTCTCTTCTCAGTTGTGCTCCTTTTCCCCCCAGACCGAACTAGAGCTT
[6] = tested on: Dm-CCS-2 (DNA, aptamer, HFNAP: side-chain on 5' nucleobase of each coding trinucleotide, positions 19,22,25,...,61 (codon key Figure 1B)) GAAAGCAGGACTGGAGATCGTTTATGGCCACCTCCTTGACAGTTGCCCTGCCTCCAGTCCTCCCAGACCGAACTAGAGCTT
[7] = tested on: Dm-reference-based-random-after-selection-3 (DNA, other, HFNAP: side-chain on 5' nucleobase of each coding trinucleotide, positions 19,22,25,...,61 (codon key Figure 1B)) GAAAGCAGGACTGGAGATTGCTCTTGCCCGCCCTGTTGCTATCATCCCCCACCTTAGTACCCCCAGACCGAACTAGAGCTT

COc1cccc2c1C(=O)c1c(O)c3c(c(O)c1C2=O)C[C@@](O)(C(C)=O)C[C@@H]3O[C@H]1C[C@H](N)[C@H](O)[C@H](C)O1
Kd [1]: 0.97 ± 0.06 µM | Kd [2]: 1.98 ± 0.07 µM | Kd [3]: 18.09 ± 5.2 nM | Kd [4]: 1.13 ± 0.45 nM | Kd [5]: 15.5 ± 1.3 nM | Kd [6]: 16.6 ± 14.0 nM | Kd [7]: 176.5 ± 8.0 µM
